{"source": "ChEMBL document CHEMBL5465560", "about": "“Selectivity Literature for EUbOPEN Chemogenomic Library” (2024)", "key": {"[1]": {"molecular_target": "Serine/threonine-protein kinase PAK 4 (Homo sapiens, UniProt O96013)", "sequence (O96013 whole entry, looked up)": "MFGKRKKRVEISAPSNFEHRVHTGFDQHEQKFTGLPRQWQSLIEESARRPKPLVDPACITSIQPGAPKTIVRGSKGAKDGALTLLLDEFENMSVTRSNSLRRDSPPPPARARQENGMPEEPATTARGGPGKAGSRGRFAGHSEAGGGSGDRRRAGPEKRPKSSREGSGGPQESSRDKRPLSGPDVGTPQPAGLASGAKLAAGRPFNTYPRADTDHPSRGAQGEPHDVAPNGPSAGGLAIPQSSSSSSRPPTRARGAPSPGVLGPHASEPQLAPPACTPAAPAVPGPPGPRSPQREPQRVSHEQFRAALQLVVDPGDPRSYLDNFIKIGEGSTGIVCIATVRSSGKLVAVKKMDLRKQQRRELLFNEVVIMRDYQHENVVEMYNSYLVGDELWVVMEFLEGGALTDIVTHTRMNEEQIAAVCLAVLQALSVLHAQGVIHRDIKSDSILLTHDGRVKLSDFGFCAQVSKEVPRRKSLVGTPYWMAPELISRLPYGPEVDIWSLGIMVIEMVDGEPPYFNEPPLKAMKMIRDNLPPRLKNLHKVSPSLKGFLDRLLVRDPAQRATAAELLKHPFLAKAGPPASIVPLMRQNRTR", "assay": "Selectivity interaction (KinomeScan (DiscoverX)) EUB0001049a PAK4", "conditions": "at 1 µM"}, "[2]": {"molecular_target": "Dual specificity protein kinase CLK1 (Homo sapiens, UniProt P49759)", "sequence (P49759 whole entry, looked up)": "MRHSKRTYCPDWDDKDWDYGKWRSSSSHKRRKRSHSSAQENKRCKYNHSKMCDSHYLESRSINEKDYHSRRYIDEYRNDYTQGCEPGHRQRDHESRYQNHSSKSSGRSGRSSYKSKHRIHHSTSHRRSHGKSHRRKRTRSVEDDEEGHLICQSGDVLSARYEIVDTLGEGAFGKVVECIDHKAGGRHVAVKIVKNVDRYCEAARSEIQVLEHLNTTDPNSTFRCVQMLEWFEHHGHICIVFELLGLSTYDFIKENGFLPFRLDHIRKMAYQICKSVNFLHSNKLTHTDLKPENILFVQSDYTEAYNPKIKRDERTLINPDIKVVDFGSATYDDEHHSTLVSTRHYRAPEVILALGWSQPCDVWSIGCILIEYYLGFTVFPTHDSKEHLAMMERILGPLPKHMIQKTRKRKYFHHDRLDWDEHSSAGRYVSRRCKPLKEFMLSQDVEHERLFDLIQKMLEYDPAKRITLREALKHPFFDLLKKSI", "assay": "Selectivity interaction (KinomeScan (DiscoverX)) EUB0001550a CLK1", "conditions": "at 1 µM"}, "[3]": {"molecular_target": "Serine/threonine-protein kinase Nek7 (Homo sapiens) (UniProt Q8TDX7)", "sequence (Q8TDX7 whole entry, looked up)": "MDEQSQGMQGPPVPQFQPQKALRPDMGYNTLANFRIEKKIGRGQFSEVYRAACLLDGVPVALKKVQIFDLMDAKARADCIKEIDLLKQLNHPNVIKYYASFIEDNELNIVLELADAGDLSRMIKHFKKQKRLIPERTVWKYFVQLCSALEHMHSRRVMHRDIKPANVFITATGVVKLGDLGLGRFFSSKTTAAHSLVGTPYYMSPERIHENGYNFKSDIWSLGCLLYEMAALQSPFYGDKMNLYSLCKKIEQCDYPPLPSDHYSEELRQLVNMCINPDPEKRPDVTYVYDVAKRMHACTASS", "assay": "Selectivity interaction (Upstate Kinase Profiler service (Millipore)) EUB0000056c NEK7", "conditions": "at 1 µM"}, "[4]": {"molecular_target": "RAC-gamma serine/threonine-protein kinase (Homo sapiens, UniProt Q9Y243)", "sequence (Q9Y243 whole entry)": "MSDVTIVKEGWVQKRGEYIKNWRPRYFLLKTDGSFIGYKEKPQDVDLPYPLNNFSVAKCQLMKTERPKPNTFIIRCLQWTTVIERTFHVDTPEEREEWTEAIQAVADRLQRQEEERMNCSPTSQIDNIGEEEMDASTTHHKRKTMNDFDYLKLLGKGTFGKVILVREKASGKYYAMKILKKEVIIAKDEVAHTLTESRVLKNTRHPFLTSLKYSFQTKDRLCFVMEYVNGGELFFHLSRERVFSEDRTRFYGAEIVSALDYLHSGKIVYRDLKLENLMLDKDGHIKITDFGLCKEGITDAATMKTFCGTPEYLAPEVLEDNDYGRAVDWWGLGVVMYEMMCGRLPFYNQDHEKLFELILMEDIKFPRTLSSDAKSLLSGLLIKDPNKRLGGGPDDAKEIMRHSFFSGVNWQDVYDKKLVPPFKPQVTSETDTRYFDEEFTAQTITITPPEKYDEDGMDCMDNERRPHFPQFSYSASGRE", "assay": "Selectivity interaction (KinomeScan (DiscoverX)) EUB0001619a AKT3", "conditions": "at 1 µM"}, "[5]": {"molecular_target": "Fibroblast growth factor receptor 2 (Homo sapiens) (UniProt P21802)", "sequence (P21802 22-821 limits assumed)": "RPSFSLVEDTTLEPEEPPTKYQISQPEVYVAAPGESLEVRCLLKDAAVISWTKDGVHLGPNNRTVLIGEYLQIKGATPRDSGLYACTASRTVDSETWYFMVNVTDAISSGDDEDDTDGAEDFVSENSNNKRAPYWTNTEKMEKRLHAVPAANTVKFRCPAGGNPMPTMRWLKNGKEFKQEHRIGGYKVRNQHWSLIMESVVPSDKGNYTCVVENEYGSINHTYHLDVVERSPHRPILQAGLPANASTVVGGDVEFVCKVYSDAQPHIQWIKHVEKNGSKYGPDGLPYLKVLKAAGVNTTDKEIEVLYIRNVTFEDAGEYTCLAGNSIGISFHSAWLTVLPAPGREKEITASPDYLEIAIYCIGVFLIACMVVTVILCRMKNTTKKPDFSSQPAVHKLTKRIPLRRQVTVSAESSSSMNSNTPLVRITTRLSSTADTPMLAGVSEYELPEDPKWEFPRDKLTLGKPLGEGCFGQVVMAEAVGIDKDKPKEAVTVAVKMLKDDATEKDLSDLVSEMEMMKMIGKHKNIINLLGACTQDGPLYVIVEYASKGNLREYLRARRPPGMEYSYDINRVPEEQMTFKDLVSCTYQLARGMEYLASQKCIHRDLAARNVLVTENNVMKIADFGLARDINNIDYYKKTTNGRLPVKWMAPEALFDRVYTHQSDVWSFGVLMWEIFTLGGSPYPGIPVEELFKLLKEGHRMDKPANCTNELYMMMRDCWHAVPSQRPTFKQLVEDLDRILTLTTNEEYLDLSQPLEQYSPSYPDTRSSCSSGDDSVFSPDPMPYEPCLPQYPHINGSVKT", "assay": "Selectivity interaction (SelectScreen profiling (Invitrogen)) EUB0000607a FGFR2", "conditions": "at 2 µM"}, "[6]": {"molecular_target": "Serine/threonine-protein kinase tousled-like 2 (Homo sapiens) (UniProt Q86UE8)", "sequence (Q86UE8 whole entry, looked up)": "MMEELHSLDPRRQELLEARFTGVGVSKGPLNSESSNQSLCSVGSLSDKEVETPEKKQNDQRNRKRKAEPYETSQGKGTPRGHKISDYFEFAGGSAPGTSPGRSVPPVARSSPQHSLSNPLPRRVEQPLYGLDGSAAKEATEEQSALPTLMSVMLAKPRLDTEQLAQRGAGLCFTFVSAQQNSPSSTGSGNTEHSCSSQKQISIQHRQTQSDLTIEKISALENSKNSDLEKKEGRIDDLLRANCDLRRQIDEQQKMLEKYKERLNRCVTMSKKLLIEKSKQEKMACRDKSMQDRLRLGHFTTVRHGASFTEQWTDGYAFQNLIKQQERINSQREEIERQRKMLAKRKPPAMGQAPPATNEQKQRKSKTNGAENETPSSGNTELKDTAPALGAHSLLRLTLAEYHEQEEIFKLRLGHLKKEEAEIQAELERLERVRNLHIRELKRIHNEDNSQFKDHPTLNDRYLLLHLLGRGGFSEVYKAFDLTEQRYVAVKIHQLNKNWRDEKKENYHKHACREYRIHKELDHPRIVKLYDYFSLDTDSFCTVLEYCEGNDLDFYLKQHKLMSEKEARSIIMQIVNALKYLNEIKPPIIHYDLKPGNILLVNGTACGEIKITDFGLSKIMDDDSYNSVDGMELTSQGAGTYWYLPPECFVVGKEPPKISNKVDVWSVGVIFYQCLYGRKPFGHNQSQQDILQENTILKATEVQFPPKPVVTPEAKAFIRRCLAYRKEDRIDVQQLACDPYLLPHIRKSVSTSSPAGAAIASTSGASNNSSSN", "assay": "Selectivity interaction (ActivX KiNativ screen (kinase selectivity in THP-1 cell lysates)) EUB0000639a TLK2", "assay_type": "subcellular", "conditions": "lysate"}, "[7]": {"molecular_target": "T1, G protein-coupled receptor kinase 3 (Homo sapiens) (UniProt P35626)", "T1 sequence (whole entry)": "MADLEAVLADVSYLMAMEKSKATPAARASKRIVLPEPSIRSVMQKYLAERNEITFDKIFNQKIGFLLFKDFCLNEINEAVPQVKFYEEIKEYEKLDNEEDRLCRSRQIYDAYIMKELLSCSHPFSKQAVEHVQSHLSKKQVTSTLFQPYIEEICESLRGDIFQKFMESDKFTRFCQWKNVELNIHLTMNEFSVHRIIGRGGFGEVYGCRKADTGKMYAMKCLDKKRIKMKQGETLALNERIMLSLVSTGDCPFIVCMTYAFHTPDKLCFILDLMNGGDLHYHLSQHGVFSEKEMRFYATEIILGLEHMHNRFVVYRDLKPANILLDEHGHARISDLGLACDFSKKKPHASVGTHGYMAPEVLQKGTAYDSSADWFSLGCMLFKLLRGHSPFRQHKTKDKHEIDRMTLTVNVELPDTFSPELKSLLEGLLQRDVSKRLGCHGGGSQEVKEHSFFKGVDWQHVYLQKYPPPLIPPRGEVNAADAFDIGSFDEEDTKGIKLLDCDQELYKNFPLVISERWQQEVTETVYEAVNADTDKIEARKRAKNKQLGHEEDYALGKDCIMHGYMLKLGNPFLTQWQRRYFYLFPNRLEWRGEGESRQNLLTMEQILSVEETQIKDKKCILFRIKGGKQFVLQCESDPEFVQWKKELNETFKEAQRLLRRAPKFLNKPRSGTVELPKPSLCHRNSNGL", "assay": "Selectivity interaction (Kinase panel (Invitrogen)) EUB0000639a ADRBK2", "conditions": "at 200 nM"}, "[8]": {"molecular_target": "T2, Mitogen-activated protein kinase kinase kinase 15 (Homo sapiens) (UniProt Q6ZN16)", "T2 sequence (whole entry)": "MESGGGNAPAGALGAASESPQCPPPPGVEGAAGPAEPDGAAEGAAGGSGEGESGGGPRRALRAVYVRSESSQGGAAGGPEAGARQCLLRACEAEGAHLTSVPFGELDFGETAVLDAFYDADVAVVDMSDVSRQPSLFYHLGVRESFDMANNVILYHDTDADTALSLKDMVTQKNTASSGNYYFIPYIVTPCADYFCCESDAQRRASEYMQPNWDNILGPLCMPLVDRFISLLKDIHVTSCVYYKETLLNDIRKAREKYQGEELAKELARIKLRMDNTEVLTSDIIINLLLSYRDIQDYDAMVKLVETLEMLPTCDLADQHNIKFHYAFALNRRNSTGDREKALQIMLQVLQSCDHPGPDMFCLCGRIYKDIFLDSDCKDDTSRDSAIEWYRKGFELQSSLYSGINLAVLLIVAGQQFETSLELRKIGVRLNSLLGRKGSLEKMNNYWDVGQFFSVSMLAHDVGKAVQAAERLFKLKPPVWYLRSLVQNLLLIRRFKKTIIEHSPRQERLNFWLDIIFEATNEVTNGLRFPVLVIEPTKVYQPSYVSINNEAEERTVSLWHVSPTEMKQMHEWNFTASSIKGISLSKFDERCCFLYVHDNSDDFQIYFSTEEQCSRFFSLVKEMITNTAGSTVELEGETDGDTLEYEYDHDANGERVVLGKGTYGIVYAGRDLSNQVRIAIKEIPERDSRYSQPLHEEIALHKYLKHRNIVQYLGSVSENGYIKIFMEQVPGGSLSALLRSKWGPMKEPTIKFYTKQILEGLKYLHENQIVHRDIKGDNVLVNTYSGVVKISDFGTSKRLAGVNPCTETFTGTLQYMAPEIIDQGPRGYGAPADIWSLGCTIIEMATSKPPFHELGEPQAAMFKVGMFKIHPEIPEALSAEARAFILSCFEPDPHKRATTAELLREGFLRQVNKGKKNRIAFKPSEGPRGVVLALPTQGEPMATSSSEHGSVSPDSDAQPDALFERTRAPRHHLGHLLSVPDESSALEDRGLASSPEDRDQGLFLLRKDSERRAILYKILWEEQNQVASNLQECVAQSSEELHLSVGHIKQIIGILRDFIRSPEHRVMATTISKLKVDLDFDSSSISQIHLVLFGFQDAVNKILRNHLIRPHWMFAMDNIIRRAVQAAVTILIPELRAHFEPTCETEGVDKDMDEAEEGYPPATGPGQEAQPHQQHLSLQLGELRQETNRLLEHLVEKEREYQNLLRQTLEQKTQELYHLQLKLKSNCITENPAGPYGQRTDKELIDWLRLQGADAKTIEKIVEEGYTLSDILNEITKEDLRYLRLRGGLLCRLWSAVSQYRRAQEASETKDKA", "assay": "Selectivity interaction (KinomeScan (DiscoverX)) EUB0000092b MAP3K15", "conditions": "at 10 µM"}}}
{"smiles": "COc1cc(Nc2nc(C)cc(-c3cnn4nc(OC)ccc34)n2)cc(C(F)(F)F)c1", "values": [{"measurement": "% of control", "setting": "[1]", "value": 88, "unit": "%"}]}
{"smiles": "CN(C)CC#Cc1ccc2[nH]c3c(c2c1)-c1nc(N)ncc1CCC3", "values": [{"measurement": "% of control", "setting": "[2]", "value": 30, "unit": "%"}]}
{"smiles": "Cc1ccc(-c2ccc3c(ccc4sc5c(c43)NC[C@@H](C)NC5=O)n2)cn1", "values": [{"measurement": "% of inhibition", "setting": "[3]", "value": -3, "unit": "%"}]}
{"smiles": "N#Cc1cccc(-c2c[nH]c3ncnc(N4CCOCC4)c23)c1", "values": [{"measurement": "% of control", "setting": "[4]", "value": 100, "unit": "%"}]}
{"smiles": "CNC(=O)Nc1ccc(-c2nc(N3CC4CCC(C3)O4)c3cnn(C4CCC5(CC4)OCCO5)c3n2)cc1", "values": [{"measurement": "% of inhibition", "setting": "[5]", "value": 4, "unit": "%"}]}
{"smiles": "CC[C@@H]1[C@H](F)C(=O)N[C@@H]1COc1nccc2cc(C(N)=O)c(OC)cc12", "note": "[ZIMLOVISERTIB]", "values": [{"measurement": "% of inhibition", "setting": "[6]; at 0.01 µM", "value": 16.6, "unit": "%"}, {"measurement": "% of inhibition", "setting": "[6]; at 0.04 µM", "value": 2.6, "unit": "%"}, {"measurement": "% of inhibition", "setting": "[6]; at 0.2 µM", "value": 18.7, "unit": "%"}, {"measurement": "% of inhibition", "setting": "[6]; at 1 µM", "value": 46.3, "unit": "%"}, {"measurement": "% of inhibition", "setting": "[6]; at 5 µM", "value": 73.5, "unit": "%"}, {"measurement": "% of inhibition", "setting": "[7]", "value": 2.95, "unit": "%"}]}
{"smiles": "CCC(=O)N1CCN(c2ccc(-n3c(=O)ccc4cnc5ccc(-c6cnc7ccccc7c6)cc5c43)cc2C(F)(F)F)CC1", "values": [{"measurement": "% of control", "setting": "[8]", "value": 100, "unit": "%"}]}
